Experimental data from the CheMixHub viscosity set.

Test: xn = mol fraction of the nth substance listed

CCCCCCCCC + CCCCCCC
298.15 K, 101.33 kPa
Conditions | viscosity [mPa·s]
x2 = 0.1102 | 0.6128
x2 = 0.2046 | 0.5921
x2 = 0.3052 | 0.562
x2 = 0.407 | 0.5372
x2 = 0.5092 | 0.5104
x2 = 0.6073 | 0.4838
x2 = 0.7071 | 0.4588
x2 = 0.8027 | 0.4312
x2 = 0.8996 | 0.4081

CCCCCCCC/C=C\CCCCCCCC(=O)OCC(COC(=O)CCCCCCC/C=C\CCCCCCCC)OC(=O)CCCCCCC/C=C\CCCCCCCC + CCCCCCCC
viscosity [mPa·s], 101.33 kPa
Conditions | x1 = 0.000908 | x1 = 0.001916 | x1 = 0.004907 | x1 = 0.0101 | x1 = 0.02609 | x1 = 0.03555 | x1 = 0.05997 | x1 = 0.08297
293.15 K | 0.5531 | 0.5668 | 0.6068 | 0.6753 | 0.9348 | 1.11 | 1.638 | 2.268
298.15 K | 0.5204 | 0.5329 | 0.5699 | 0.6331 | 0.8701 | 1.03 | 1.505 | 2.064
303.15 K | 0.4903 | 0.502 | 0.536 | 0.5947 | 0.8126 | 0.9579 | 1.388 | 1.894
308.15 K | 0.4628 | 0.4737 | 0.5055 | 0.5596 | 0.7605 | 0.8936 | 1.284 | 1.741
313.15 K | 0.4377 | 0.4478 | 0.4774 | 0.5277 | 0.7134 | 0.8357 | 1.191 | 1.606

CCCCCCCCC + CCCCCCCC
298.15 K, 101.33 kPa
Conditions | viscosity [mPa·s]
x2 = 0.1092 | 0.631
x2 = 0.2071 | 0.6264
x2 = 0.3038 | 0.6069
x2 = 0.4058 | 0.5951
x2 = 0.5051 | 0.5768
x2 = 0.6076 | 0.5586
x2 = 0.7044 | 0.5497
x2 = 0.8047 | 0.5318
x2 = 0.9025 | 0.5116

CCCCCCCCC + CCCCCCCCCC
298.15 K, 101.33 kPa
Conditions | viscosity [mPa·s]
x1 = 0.1051 | 0.8387
x1 = 0.2082 | 0.8061
x1 = 0.3045 | 0.7835
x1 = 0.4048 | 0.7761
x1 = 0.5057 | 0.7535
x1 = 0.6085 | 0.7344
x1 = 0.7065 | 0.7185
x1 = 0.806 | 0.6913
x1 = 0.897 | 0.6734

CCCCCC(=O)[O-].[Na+] + CCCCCCCCCC(=O)O
100 kPa, x1 = 0.3
Conditions | viscosity [mPa·s]
293.15 K | 285.4
298.15 K | 213.6
303.15 K | 162.3
308.15 K | 125.7
313.15 K | 98.9
318.15 K | 79
323.15 K | 63.9

CCCCCCCCC + CCCCCCCCCCCC
298.15 K, 101.33 kPa
Conditions | viscosity [mPa·s]
x1 = 0.0957 | 1.273
x1 = 0.1995 | 1.187
x1 = 0.3049 | 1.111
x1 = 0.4056 | 1.022
x1 = 0.5088 | 0.969
x1 = 0.6103 | 0.8955
x1 = 0.7039 | 0.8282
x1 = 0.8049 | 0.7721
x1 = 0.9023 | 0.7118

CCCCCCCCC + CCCCCCCCCCCCCCCC
298.15 K, 101.33 kPa
Conditions | viscosity [mPa·s]
x1 = 0.1105 | 2.698
x1 = 0.2002 | 2.416
x1 = 0.3173 | 2.072
x1 = 0.4054 | 1.832
x1 = 0.5056 | 1.571
x1 = 0.5795 | 1.404
x1 = 0.7077 | 1.152
x1 = 0.8024 | 0.9655
x1 = 0.8988 | 0.8177

CCCCCCCCc1ccccc1 + CCCCCCCCCCCCCCCC
viscosity [mPa·s], 102 kPa
Conditions | x1 = 0.1177 | x1 = 0.2297 | x1 = 0.3377 | x1 = 0.4423 | x1 = 0.5431 | x1 = 0.6411 | x1 = 0.7351 | x1 = 0.8263 | x1 = 0.9146
293.15 K | 3.28 | 3.16 | 3.05 | 2.94 | 2.85 | 2.78 | 2.71 | 2.65 | 2.62
303.15 K | 2.61 | 2.52 | 2.44 | 2.36 | 2.3 | 2.25 | 2.19 | 2.15 | 2.12
313.15 K | 2.13 | 2.06 | 2 | 1.94 | 1.89 | 1.86 | 1.81 | 1.78 | 1.76
323.15 K | 1.77 | 1.72 | 1.67 | 1.63 | 1.59 | 1.56 | 1.52 | 1.5 | 1.48

CC(=O)c1ccccc1 + CCCCCO
298.15 K, 101 kPa
Conditions | viscosity [mPa·s]
x1 = 0.0754 | 3.104
x1 = 0.155 | 3.016
x1 = 0.2392 | 2.918
x1 = 0.3285 | 2.801
x1 = 0.4232 | 2.657
x1 = 0.524 | 2.498
x1 = 0.6313 | 2.31
x1 = 0.7459 | 2.102
x1 = 0.8685 | 1.898

C1COCO1 + CCCCO
viscosity [mPa·s], 101 kPa
Conditions | 298.15 K | 303.15 K | 313.15 K
x1 = 0.1001 | – | 1.74 | –
x1 = 0.1022 | 1.884 | – | 1.354
x1 = 0.1981 | 1.493 | – | 1.109
x1 = 0.2001 | – | 1.373 | –
x1 = 0.3001 | – | 1.113 | –
x1 = 0.3055 | 1.201 | – | 0.9166
x1 = 0.4001 | – | 0.9587 | –
x1 = 0.4054 | 1.014 | – | 0.7915
x1 = 0.5001 | – | 0.8419 | –
x1 = 0.5008 | 0.8912 | – | 0.7023
x1 = 0.6001 | – | 0.7305 | –
x1 = 0.6035 | 0.7757 | – | 0.6292
x1 = 0.7001 | – | 0.6582 | –
x1 = 0.7024 | 0.6998 | – | 0.5763
x1 = 0.8001 | – | 0.6192 | –
x1 = 0.8009 | 0.6441 | – | 0.5372
x1 = 0.9001 | – | 0.5873 | –
x1 = 0.9002 | 0.6073 | – | 0.5116

CN(C)P(=O)(N(C)C)N(C)C + CCCCO
303.15 K, 101.3 kPa
Conditions | viscosity [mPa·s]
x1 = 0.0872 | 2.283
x1 = 0.1988 | 2.312
x1 = 0.2977 | 2.351
x1 = 0.3888 | 2.404
x1 = 0.4941 | 2.487
x1 = 0.5894 | 2.567
x1 = 0.6891 | 2.655
x1 = 0.7954 | 2.745
x1 = 0.8991 | 2.834

CC(=O)c1ccccc1 + CCCCOC(C)=O
viscosity [mPa·s], 101 kPa
Conditions | x2 = 0.0904 | x2 = 0.1786 | x2 = 0.2746 | x2 = 0.37 | x2 = 0.4671 | x2 = 0.5675 | x2 = 0.672 | x2 = 0.7729 | x2 = 0.8848
298.15 K | 1.557 | 1.452 | 1.341 | 1.232 | 1.129 | 1.028 | 0.933 | 0.848 | 0.763
303.15 K | 1.405 | 1.312 | 1.212 | 1.115 | 1.024 | 0.934 | 0.849 | 0.772 | 0.696
308.15 K | 1.29 | 1.207 | 1.119 | 1.034 | 0.95 | 0.87 | 0.792 | 0.724 | 0.655
313.15 K | 1.188 | 1.112 | 1.032 | 0.954 | 0.877 | 0.804 | 0.734 | 0.671 | 0.608

C1COCO1 + CCCCOCCO
298.15 K, 101 kPa
Conditions | viscosity [mPa·s]
x1 = 0.1506 | 2.2
x1 = 0.2851 | 1.773
x1 = 0.4061 | 1.465
x1 = 0.5154 | 1.229
x1 = 0.6147 | 1.053
x1 = 0.7053 | 0.9156
x1 = 0.7882 | 0.8012
x1 = 0.8645 | 0.7116
x1 = 0.9349 | 0.6419

CCCOCC(C)O (centres undefined) + CCCNCCC
viscosity [mPa·s], 100 kPa
Conditions | 298.15 K | 303.15 K | 308.15 K
x1 = 0.0501 | 0.5507 | 0.5133 | 0.4872
x1 = 0.1003 | 0.6065 | 0.556 | 0.5257
x1 = 0.1502 | 0.6545 | 0.6056 | 0.571
x1 = 0.1999 | 0.7308 | 0.6597 | 0.6196
x1 = 0.3 | 0.8816 | 0.7957 | 0.7427
x1 = 0.4 | 1.089 | 0.969 | 0.894
x1 = 0.4999 | 1.294 | 1.144 | 1.052
x1 = 0.6 | 1.558 | 1.351 | 1.228
x1 = 0.6999 | 1.823 | 1.571 | 1.415
x1 = 0.7997 | 2.079 | 1.784 | 1.603
x1 = 0.8999 | 2.275 | 1.945 | 1.748
x1 = 0.9498 | 2.357 | 2.016 | 1.815

C1COCO1 + CCCO
303.15 K, 101 kPa
Conditions | viscosity [mPa·s]
x1 = 0.08269 | 1.258
x1 = 0.1686 | 1.067
x1 = 0.258 | 0.9345
x1 = 0.351 | 0.8208
x1 = 0.4479 | 0.7339
x1 = 0.5489 | 0.6454
x1 = 0.6543 | 0.592
x1 = 0.7644 | 0.5684
x1 = 0.8795 | 0.5564

CN(C)P(=O)(N(C)C)N(C)C + CCCO
303.15 K, 101.3 kPa
Conditions | viscosity [mPa·s]
x1 = 0.0989 | 1.896
x1 = 0.1996 | 1.991
x1 = 0.3022 | 2.102
x1 = 0.4027 | 2.217
x1 = 0.4525 | 2.272
x1 = 0.598 | 2.444
x1 = 0.6994 | 2.569
x1 = 0.7809 | 2.666
x1 = 0.8672 | 2.766

CCCOCC(C)O (centres undefined) + CCN(CC)CC
viscosity [mPa·s], 100 kPa
Conditions | 298.15 K | 303.15 K | 308.15 K
x1 = 0.0502 | 0.4177 | 0.3933 | 0.3699
x1 = 0.1001 | 0.4846 | 0.4496 | 0.4206
x1 = 0.1501 | 0.5523 | 0.5096 | 0.476
x1 = 0.2016 | 0.6258 | 0.5726 | 0.5332
x1 = 0.3 | 0.7805 | 0.7042 | 0.6523
x1 = 0.4 | 0.9537 | 0.8515 | 0.7863
x1 = 0.5 | 1.153 | 1.017 | 0.9326
x1 = 0.5998 | 1.382 | 1.207 | 1.102
x1 = 0.6999 | 1.625 | 1.406 | 1.281
x1 = 0.7996 | 1.887 | 1.629 | 1.474
x1 = 0.8998 | 2.169 | 1.87 | 1.682
x1 = 0.9499 | 2.304 | 1.973 | 1.775

CCCOCC(C)O (centres undefined) + CCNCC
viscosity [mPa·s], 100 kPa
Conditions | 298.15 K | 303.15 K | 308.15 K
x1 = 0.0509 | 0.3488 | 0.3318 | 0.3107
x1 = 0.1002 | 0.3949 | 0.3733 | 0.3489
x1 = 0.1505 | 0.4552 | 0.4261 | 0.4014
x1 = 0.2 | 0.519 | 0.4819 | 0.4542
x1 = 0.3003 | 0.6838 | 0.6321 | 0.5992
x1 = 0.4 | 0.8976 | 0.8055 | 0.7606
x1 = 0.5002 | 1.171 | 1.034 | 0.9506
x1 = 0.5999 | 1.436 | 1.264 | 1.15
x1 = 0.7 | 1.742 | 1.514 | 1.365
x1 = 0.7982 | 2.014 | 1.738 | 1.562
x1 = 0.9 | 2.265 | 1.94 | 1.739
x1 = 0.9496 | 2.361 | 2.021 | 1.814
